Reference: patent US10098350B2, “Fungicidal amides” (E. I. DU PONT DE NEMOURS AND COMPANY, priority 2013, dated 2018)

Legend:
Type in all cases: in vivo
[1] = test system: Stagonospora nodorum (also known as Septoria nodorum); assay: Test B: wheat seedlings sprayed with test suspension, inoculated with Stagonospora nodorum (wheat glume blotch), visual disease rating
From the text: (§1) General protocol for preparing test suspensions for Tests A-E: the test compounds were first dissolved in acetone in an amount equal to 3% of the final volume and then suspended at the desired concentration (in ppm) in acetone and purified water (50/50 mix by volume) containing 250 ppm of the surfactant Trem® 014 (polyhydric alcohol esters). The resulting test suspensions were then used in Tests A-E. Samples were applied to plants at either a 10 ppm (**), 40 ppm, 50 ppm (*) or 200 ppm (#) test solution to the point of run-off on the test plants with the equivalent of a rate of 40 g ai/ha, 160 g ai/ha, 200 g ai/ha, or 800 g ai/ha, respectively.
(§2) The test suspension was sprayed to the point of run-off on wheat seedlings. The following day the seedlings were inoculated with a spore suspension of Stagonospora nodorum (also known as Septoria nodorum; the causal agent of wheat glume blotch) and incubated in a saturated atmosphere at 20° C. for 48 h, and then moved to a growth chamber at 20° C. for 6 days, after which time visual disease ratings were made.
(§3) Results for Tests A-E are given in Table A. In the Table, a rating of 100 indicates 100% disease control and a rating of 0 indicates no disease control (relative to the controls). A dash (-) indicates no test results.

[2] = test system: Erysiphe graminis f. sp. tritici; assay: Test E: wheat seedlings sprayed with test suspension, inoculated with Erysiphe graminis f. sp. tritici (wheat powdery mildew), visual disease rating
From the text: as §1
The test suspension was sprayed to the point of run-off on wheat seedlings. The following day the seedlings were inoculated with a spore dust of Erysiphe graminis f. sp. tritici, (the causal agent of wheat powdery mildew) and incubated in a growth chamber at 20° C. for 7 or 8 days, after which time visual disease ratings were made.
as §3

Botrytis cinerea = assay: Test A: tomato seedlings sprayed with test suspension, inoculated with Botrytis cinerea (gray mold), visual disease rating; settings: Cmpd. No. unmarked; 100 = 100% disease control, 0 = no control relative to controls
From the text: as §1
The test suspension was sprayed to the point of run-off on tomato seedlings. The following day the seedlings were inoculated with a spore suspension of Botrytis cinerea (the causal agent of gray mold on many crops) and incubated in a saturated atmosphere at 20° C. for 48 h, and moved to a growth chamber at 27° C. for 2 days, after which time visual disease ratings were made.
as §3

[3] = test system: Puccinia recondite f. sp. tritici; assay: Test D: wheat seedlings sprayed with test suspension, inoculated with Puccinia recondite f. sp. tritici (wheat leaf rust), visual disease rating
From the text: as §1
as §2, with “Puccinia recondite f. sp. tritici; (the” for “Stagonospora nodorum (also known as Septoria nodorum; the”, “leaf rust)” for “glume blotch)”, “24” for “48”
as §3

Septoria tritici = assay: Test C: wheat seedlings sprayed with test suspension, inoculated with Septoria tritici (wheat leaf blotch), visual disease rating
From the text: as §1
The test suspension was sprayed to the point of run-off on wheat seedlings. The following day the seedlings were inoculated with a spore suspension of Septoria tritici (the causal agent of wheat leaf blotch) and incubated in a saturated atmosphere at 24° C. for 48 h, and then moved to a growth chamber at 20° C. for 21 days, after which time visual disease ratings were made.
as §3

[4] = Cmpd. No. unmarked, 100 = 100% disease control, 0 = no control relative to controls
[5] = Cmpd. No. marked '*' (other test rate; meaning of mark not shown)

| SMILES | Test B rating (% disease control) [1, 4] | Test E rating (% disease control) [2, 4] | Test A rating (% disease control) (Botrytis cinerea) | Test D rating (% disease control) [3, 4] | Test C rating (% disease control) (Septoria tritici; [4]) | Test B rating (% disease control) [1, 5] | Test C rating (% disease control) (Septoria tritici; [5]) | Test E rating (% disease control) [2, 5] | Test D rating (% disease control) [3, 5] |
| --- | --- | --- | --- | --- | --- | --- | --- | --- | --- |
| CC(c1ccc(C(F)(F)F)c(-n2ccc(C(F)(F)F)n2)c1)N(C(=O)c1cn(C)nc1C(F)F)C1CC1 (stereo not drawn) [compound 21] | 0% | 64% | 0% | 0% |  |  |  |  |  |
| CC(c1cc(Cl)cc(-n2ccc(C(F)(F)F)n2)c1)N(C(=O)c1cn(C)nc1C(F)F)C1CC1 (stereo not drawn) [compound 22] | 90% | 81% | 0% | 55% |  |  |  |  |  |
| Cn1nc(C(F)F)c(C(=O)N(Cc2ccc(-n3ccc(C(F)(F)F)n3)cc2OC(F)(F)F)C2CC2)c1F [compound 23] | 98% | 98% | 0% | 99% |  |  |  |  |  |
| Cn1cc(C(=O)N(Cc2c(Cl)cc(-n3cccn3)cc2Cl)C2CC2)c(C(F)F)n1 [compound 24] | 100% | 90% | 0% | 99% |  |  |  |  |  |
| COc1cc(-n2ccc(C(F)(F)F)n2)ccc1CN(C(=O)c1c(C(F)F)nn(C)c1F)C1CC1 [compound 25] | 100% | 98% | 0% | 100% |  |  |  |  |  |
| Cc1ccc(C(C)N(C(=O)c2cn(C)nc2C(F)F)C2CC2)cc1-n1ccc(C(F)(F)F)n1 (stereo not drawn) [compound 26] | 99% | 81% | 0% | 0% |  |  |  |  |  |
| Cn1cc(C(=O)N(Cc2cc(-n3ccc(C(F)(F)F)n3)ccc2Br)C2CC2)c(C(F)F)n1 [compound 32] | 0% | 97% | 0% | 0% |  |  |  |  |  |
| Cn1cc(C(=O)N(Cc2cc(-n3ccc(C(F)(F)F)n3)ccc2C2CC2)C2CC2)c(C(F)F)n1 [compound 33] | 98% | 94% | 0% | 68% |  |  |  |  |  |
| Cn1cc(C(=O)N(Cc2c(Cl)cc(-n3ccc(C(F)(F)F)n3)cc2Cl)C2CC2)c(C(F)F)n1 [compound 36] | 99% | 90% | 0% | 99% |  |  |  |  |  |
| Cn1nc(C(F)F)c(C(=O)N(Cc2ccc(-n3ccc(C(F)(F)F)n3)cc2C(F)(F)F)C2CC2)c1F [compound 37] | 100% | 99% | 0% | 97% |  |  |  |  |  |
| Cn1cc(C(=O)N(Cc2cccc(-n3ccc(C(F)(F)F)n3)c2Cl)C2CC2)c(C(F)F)n1 [compound 38] | 0% | 69% | 14% | 41% |  |  |  |  |  |
| CC(c1cc(-n2ccc(C(F)(F)F)n2)ccc1Cl)N(C(=O)c1cn(C)nc1C(F)F)C1CC1 (stereo not drawn) [compound 119] | 99% | 92% |  | 93% | 92% |  |  |  |  |
| CC(C)c1cc(-n2ccc(C(F)(F)F)n2)ccc1CN(C(=O)c1c(C(F)F)nn(C)c1F)C1CC1 [compound 121] | 100% | 99% |  | 100% | 95% |  |  |  |  |
| Cc1cc(-n2ccc(C(F)(F)F)n2)cnc1CN(C(=O)c1cn(C)nc1C(F)F)C1CC1 [compound 124] | 0% | 73% |  | 0% | 94% |  |  |  |  |
| Cn1nc(C(F)F)c(C(=O)N(Cc2c(Cl)cc(-n3cccn3)cc2Cl)C2CC2)c1F [compound 125] | 100% | 92% |  | 100% | 99% |  |  |  |  |
| CC(c1ccc(Cl)c(-n2ccc(C(F)(F)F)n2)c1)N(C(=O)c1cn(C)nc1C(F)F)C1CC1 (stereo not drawn) [compound 126] | 92% | 48% |  | 68% | 92% |  |  |  |  |
| Cn1nc(C(F)F)c(C(=O)N(Cc2c(Cl)cc(-n3ccc(C(F)(F)F)n3)cc2Cl)C2CC2)c1F [compound 127] | 100% | 98% |  | 100% | 99% |  |  |  |  |
| CC(c1cc(-n2ccc(C(F)(F)F)n2)ccc1Br)N(C(=O)c1cn(C)nc1C(F)F)C1CC1 (stereo not drawn) [compound 128] | 100% | 93% |  | 0% | 92% |  |  |  |  |
| CC(c1cc(-n2ccc(C(F)(F)F)n2)ccc1[N+](=O)[O-])N(C(=O)c1cn(C)nc1C(F)F)C1CC1 (stereo not drawn) [compound 129] | 0% | 0% |  | 0% | 10% |  |  |  |  |
| CC(c1cc(-n2ccc(C(F)(F)F)n2)ccc1OC(F)(F)F)N(C(=O)c1cn(C)nc1C(F)F)C1CC1 (stereo not drawn) [compound 130] | 93% | 72% |  | 68% | 28% |  |  |  |  |
| Cn1nc(C(F)F)c(C(=O)N(Cc2c(Cl)cc(-n3ccc(Br)n3)cc2Cl)C2CC2)c1F [compound 132] | 100% | 91% |  | 100% | 99% |  |  |  |  |
| CC(c1cc(-n2ccc(C(F)(F)F)n2)ccc1OC(F)(F)F)N(C(=O)c1c(C(F)F)nn(C)c1F)C1CC1 (stereo not drawn) [compound 133] |  |  |  |  |  | 100% | 92% | 94% | 68% |
| CC(c1cc(-n2ccc(C(F)(F)F)n2)ccc1[N+](=O)[O-])N(C(=O)c1c(C(F)F)nn(C)c1F)C1CC1 (stereo not drawn) [compound 134] |  |  |  |  |  | 94% | 43% | 0% | 68% |
| CC(c1cc(-n2ccc(C(F)(F)F)n2)ccc1Cl)N(C(=O)c1c(C(F)F)nn(C)c1F)C1CC1 (stereo not drawn) [compound 135] |  |  |  |  |  | 100% | 99% | 95% | 80% |
| COc1ccc(-n2ccc(C(F)(F)F)n2)cc1C(C)N(C(=O)c1c(C(F)F)nn(C)c1F)C1CC1 (stereo not drawn) [compound 142] |  |  |  |  |  | 100% | 97% | 98% | 83% |
| Cn1nc(C(F)F)c(C(=O)N(Cc2ccc(-n3cc(Cl)cn3)cc2Cl)C2CC2)c1F [compound 143] | 100% | 99% |  | 99% | 99% |  |  |  |  |
| Cc1cnn(-c2ccc(CN(C(=O)c3c(C(F)F)nn(C)c3F)C3CC3)c(Cl)c2)c1 [compound 144] | 100% | 99% |  | 97% | 99% |  |  |  |  |
| Cn1nc(C(F)F)c(C(=O)N(Cc2ccc(-n3cncn3)cc2Cl)C2CC2)c1F [compound 145] | 95% | 0% |  | 0% | 95% |  |  |  |  |
| Cn1nc(C(F)F)c(C(=O)N(Cc2ccc(-n3cnc(Cl)n3)cc2Cl)C2CC2)c1F [compound 146] | 0% | 0% |  | 0% | 94% |  |  |  |  |
| Cn1nc(C(F)F)c(C(=O)N(Cc2ccc(-n3cnc(Br)n3)cc2Cl)C2CC2)c1F [compound 147] | 0% | 0% |  | 0% | 93% |  |  |  |  |
